From patent publication US20240300902A1, “NOVEL TRANSGLUTAMINASE 2 INHIBITOR AND USE THEREOF” (MD BIOLAB CO., LTD., priority 2021, published 2024)

How the values were obtained:
[1] = system: p53; experiment: P53 rescue test using western blotting; format: cell-based; settings: low to high concentration, cancer cell lines
Protocol: Whole cell lysates were prepared using a radioimmunoprecipitation assay (RIPA) buffer (150 mM sodium chloride, 1.0% (w/v) IGEPAL® CA-630 (NP-40), 0.5% (w/v) sodium deoxycholate, 0.1% (w/v) sodium dodecyl sulfate (SDS), a protease inhibitor cocktail, and 50 mM Tris-HCl (pH 8.0) containing a phosphatase inhibitor cocktail. Protein assays were performed through Bradford protein assay (Thermo Scientific, Waltham, MA, USA) to normalize protein expression. The proteins were resolved by SDS-PAGE and transferred to polyvinylidene difluoride (PVDF) membranes (Merck Millipore, Burlington, MA, USA). The membranes were blocked with 5% (w/v) BSA for 1 hour at room temperature and incubated overnight at 4° C. with labeled antibodies. Membranes were washed in TBS-T for 1 hour at room temperature and incubated together with a horseradish peroxidase (HRP)-bound secondary antibody for 1 hour at room temperature. Finally, the membranes were washed in TBS-T for 1 hour at room temperature and developed with enhanced chemiluminescence.

[2] = system: ACHN cells; experiment: Preclinical xenograft tumor model (ACHN, BALB/c nude mice); format: in vivo; settings: 1 mg/kg or 10 mg/kg PO once daily, 5 days per week
Protocol: Six-week-old male-specific, pathogen-free BALB/c nude mice (n=20) were purchased from the central lab (Animal Inc., Seoul, Korea). Each mouse was injected subcutaneously with ACHN cells (5.0×10^6 cells/each). When tumors reached an appropriate size (100 to 150 mm^3 for ACHN), mice were randomly selected and classified into 4 groups (n=4 to 5) according to the volume and weight of the tumor: The control group was untreated; the streptonigrin-treated group was administered in an amount of 0.2 mg/kg; and the LDD3959-treated group was administered in an amount of 1 mg/kg or 10 mg/kg. The streptonigrin and LDD3959 were orally administered to each treatment group, once daily for 5 days per week. For tumor identification, the mice were euthanized with 7.5% CO2 and the tumors were recovered for immunohistochemical analysis. The tumor volume was calculated according to the following equation: V=(A×B×B)/2 where V is the volume (mm^3), A is the long diameter (mm), and B is the short diameter (mm). The experiment was reviewed and approved by the Institutional Animal Care and Use Committee (IACUC) of the National Cancer Center Research Institute (NCCRI). […]

[3] = system: renal cancer cell lines; experiment: Cell viability in various renal cancer cell lines (water soluble tetrazolium salt); format: cell-based; settings: various concentrations, 48 hours
Protocol: Cells (20,000 cells/well, 100 μl) were incubated in a 96-well microplate. After 24 hours of the incubation, LDD3959 […] were added to each well in various concentrations by using a serum-free cell culture medium, and the cells were cultured at 37° C. in the presence of 5% CO2 for 2 hours. Next, the existing culture medium was replaced with a culture medium containing 10% FBS, and then incubation was carried out again for 48 hours. The existing culture medium was removed, and a new culture medium containing a water soluble tetrazolium salt was added. After that, the plate was incubated at 37° C. in the presence of 5% CO2 for a duration in the range of 1 hour to 3 hours, and then absorbance was measured at 450 nm.

[4] = system: ACHN cells; experiment: Expression of cell proliferation inhibition-related and angiogenesis inhibition-related proteins, western blot; format: cell-based; settings: various concentrations, 48 hours
Protocol: LDD3959 treatment at various concentrations was performed on ACHN cells, using a serum-free culture medium, and a reaction was performed at 37° C. in the presence of 5% CO2 for 2 hours. The culture medium was replaced with a culture medium containing 10% FBS, and a reaction was performed for 48 hours. The culture medium was removed, and PBS washing was performed. With the use of a solution obtained by adding a protease inhibitor cocktail and a phosphatase inhibitor cocktail to RIPA buffer (25 mM Tris*HCl pH 7.6, 150 mM NaCl, 1% NP-40, 1% sodium deoxycholate, and 0.1% SDS) was used to prepare whole cell lysates.
The proteins were quantified by Bicinchoninic acid (BCA) protein assay. The proteins were resolved by SDS-PAGE and transcribed into a polyvinylidene difluoride (PVDF) membrane. The membrane was then blocked with 5% BSA for 1 hour at room temperature, allowed to react with a labeled antibody overnight at 4° C., washed in PBS-T for 30 minutes at room temperature, and allowed to react with a horseradish peroxidase (HRP)-bound secondary antibody for 2 hours at room temperature. Finally, the membrane was washed in PBS-T for […] at room temperature and developed with enhanced chemiluminescence.

[5] = system: ACHN renal cancer cells; experiment: Antitumor effect in in vivo renal cancerous tumors, ACHN xenograft, oral administration; parameters: species or system mice; settings: oral administration daily
Protocol: (§1) To examine the antitumor effect of LDD3959, CanN.Cg-Foxn1nu/CrljOri mice were used as experimental animals. The mice were xenografted with ACHN renal cancer cells or CAKI-1 renal cancer cells to induce tumors. The ACHN renal cancer cell-transplanted group was orally administered with LDD3959, and the CAKI-1-transplanted group was intraperitoneally administered with LDD3959. In this test, the oral administration was performed daily and the intraperitoneal administration was performed twice a week.

[6] = system: CAKI-1 renal cancer cells; experiment: Antitumor effect in in vivo renal cancerous tumors, CAKI-1 xenograft, intraperitoneal administration; parameters: species or system mice
Protocol: as §1

[7] = system: MDA-MB-231 cells; experiment: Protein expression level change in TNBC breast cancer cells according to treatment time, western blot; format: cell-based; settings: MDA-MB-231, 24, 48 and 72 hours
[8] = system: a total of 8 tumors; experiment: OncoPanel assay conducted by Eurofins; format: cell-based
Protocol: The OncoPanel™ assay conducted by Eurofins confirmed the antitumor efficacy of LDD3959 in a total of 8 tumors at concentrations of 10 μM or lower.

[9] = system: 430 kinds of kinases; experiment: Kinase panel assay conducted by Eurofins; format: biochemical
Protocol: A total of 430 kinds of kinases were treated with 1 μM of LDD3959 through a kinase panel assay conducted by Eurofins to examine each activity.
The ATP concentration used in this experiment was 10 μM.

O=C1C(Cl)=C(Cl)C(=O)c2[nH]c(-c3ccc(Br)c(F)c3)nc21 [LDD3959, 2-(4-bromo-3-fluorophenyl)-5,6-dichloro-1H-benzo[d]imidazole-4,7-dione]
p53 rescue effect (Western blot band of p53) [1]: dose-dependent p53 rescue effects | tumor volume increase rate [2]: tumor volume increase rate decreased as the LDD3959 dose increased | cell viability in renal cancer cells [3]: cancer cells in a variety of renal cancer cells were killed | Akt/mTOR signals [4]: inhibiting Akt/mTOR45 signals | NFκB complexes [4]: inhibiting NFκB complexes | tumor growth inhibitory effect [5]: concentration-dependent tumor growth inhibitory effects | tumor growth inhibitory effect ([6]; CAKI-1 xenograft, intraperitoneal administration twice a week): concentration-dependent tumor growth inhibitory effects | hematological examination ([6]; intraperitoneal administration group): no abnormal findings | AKT/mTOR signals [7]: AKT/mTOR signals were inhibited | NFκB complexes [7]: NFκB complexes were inhibited | concentration with antitumor efficacy [8]: ≤ 10 µM | number of kinases that specifically showed inhibition ([9]; 430 kinases treated with 1 μM): 4 | inhibitory activity against the 4 kinases ([9]; highest concentration 1 μM, ATP 10 μM): very good inhibitory activity
